Experimental findings from ChEMBL document CHEMBL4765279, “Discovery of a novel series of imidazo[1',2':1,6]pyrido[2,3-d]pyrimidin derivatives as potent cyclin-dependent kinase 4/6 inhibitors” (Eur J Med Chem, 2020) are described below.

Molecules are shown by their SMILES.

For test [1], the system named is U-87 MG. Kind of test: Antiproliferative activity against human U-87 MG cells assessed as cell growth inhibition measured after 4 to 6 days by celltiter-glo luminescent cell viability assay. The format is functional, cell-based, U-87MG ATCC.
The target of test [2] is CDK6/Cyclin D3 (Homo sapiens, UniProt Q00534). Kind of test: Inhibition of human full-length N-terminal GST tagged CDK6 (1 to 326 residues)/GST-tagged cyclinD3 (1 to 292 residues) expressed in baculovirus expression system using ULight-elF4E-binding protein 1 peptide as substrate measured after 30 mins by LANCE assay. (TR-FRET usually uses a lanthanide donor and a delayed reading to cut background.)

Test [3] relates to COLO 205. Kind of test: Antiproliferative activity against human COLO 205 cells assessed as cell growth inhibition measured after 4 to 6 days by celltiter-glo luminescent cell viability assay. It counts as functional, cell-based. Background: Cellular ATP, detected with luciferase, serves as a proxy for viable cell number.
Test [4] concerns the target CDK4/Cyclin D3 (Homo sapiens, UniProt P11802). Kind of test: Inhibition of recombinant human full-length N-terminal GST-fused CDK4 (1 to 303 residues)/GST-tagged CyclinD3 (1 to 292 residues) expressed in baculovirus expression system using ULight-elF4E-binding protein 1 peptide as substrate measured after 30 mins by LANCE assay.
Test [5] has as its system COLO 205. Kind of test: Cell cycle arrest in human COLO 205 cells assessed as accumulation at G0/G1 phase at 200 nM measured after 24 hrs by propidium iodide staining based flow cytometry relative to control. The format is functional. A general note: Flow cytometry measures light scatter and fluorescence of single cells or particles in a stream.
In test [6] the test system is MDA-MB-468. Kind of test: Antiproliferative activity against human MDA-MB-468 cells assessed as cell growth inhibition measured after 4 to 6 days by celltiter-glo luminescent cell viability assay. It counts as functional, cell-based.

Sequence of CDK4/Cyclin D3 (P11802 whole entry, the tested form may be a part): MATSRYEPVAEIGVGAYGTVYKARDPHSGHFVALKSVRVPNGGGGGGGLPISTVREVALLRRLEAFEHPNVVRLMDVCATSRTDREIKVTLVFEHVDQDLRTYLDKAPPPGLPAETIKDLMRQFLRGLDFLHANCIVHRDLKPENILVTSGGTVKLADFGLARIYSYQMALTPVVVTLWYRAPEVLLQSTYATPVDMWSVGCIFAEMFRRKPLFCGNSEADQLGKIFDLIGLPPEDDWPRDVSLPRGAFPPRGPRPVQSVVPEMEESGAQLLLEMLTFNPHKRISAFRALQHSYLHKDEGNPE
Sequence of CDK4/Cyclin D3 (P30281 whole entry, further chain, the tested form may be a part): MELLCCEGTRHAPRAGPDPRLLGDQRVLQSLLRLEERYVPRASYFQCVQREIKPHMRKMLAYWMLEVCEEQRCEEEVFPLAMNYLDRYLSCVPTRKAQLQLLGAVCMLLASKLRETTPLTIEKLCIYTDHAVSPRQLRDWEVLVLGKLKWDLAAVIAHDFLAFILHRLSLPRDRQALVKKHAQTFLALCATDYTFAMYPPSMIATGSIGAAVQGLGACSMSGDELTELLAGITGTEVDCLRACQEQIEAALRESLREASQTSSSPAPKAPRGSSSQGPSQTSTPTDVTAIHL
Sequence of CDK6/Cyclin D3 (Q00534 whole entry, looked up, the tested form may be a part): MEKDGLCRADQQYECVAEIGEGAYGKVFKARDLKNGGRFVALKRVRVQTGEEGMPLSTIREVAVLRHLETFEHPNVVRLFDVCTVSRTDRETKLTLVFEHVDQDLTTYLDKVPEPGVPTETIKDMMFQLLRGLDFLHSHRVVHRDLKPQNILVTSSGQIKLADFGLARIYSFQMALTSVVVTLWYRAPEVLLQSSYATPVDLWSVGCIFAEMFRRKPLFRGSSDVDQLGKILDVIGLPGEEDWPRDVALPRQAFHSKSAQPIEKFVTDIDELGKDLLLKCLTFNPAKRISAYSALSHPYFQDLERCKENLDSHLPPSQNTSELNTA

Regarding `CC(=O)c1c(C)c2cnc(Nc3ccc(N4CCNCC4)cc3)nc2n2cc(C)nc12`, the IC50 was 1260 nM in test [1], 10.2 nM in test [2], 583 nM in test [3] and 3.6 nM in test [4].
Consider `CC(=O)c1c(C)c2cnc(Nc3ccc(N4CCC(N(C)C)C4)cn3)nc2n2cc(C(C)C)nc12` (stereo not given), for which the IC50 is 536 nM in test [1], 4.3 nM in test [2], 1420 nM in test [3] and 4.5 nM in test [4].
Regarding `CC(=O)c1c(C)c2cnc(Nc3ccc(C(=O)N4CCNCC4)cn3)nc2n2cc(C(C)C)nc12`, the IC50 came to 380 nM in test [1], 5.6 nM in test [2], 932 nM in test [3] and 5.3 nM in test [4].
In the case of `CCOC(=O)c1cn2c(n1)c(C(C)=O)c(C)c1cnc(Nc3ccc(N4CCNCC4)cc3)nc12`, the half-maximal inhibitory concentration (IC50) in test [1] was > 10000 nM; in test [2], 86.6 nM; in test [3], 2840 nM; in test [4], 22.3 nM.
In the same order, the values of `CNCCN1CCc2nc(Nc3ncc4c(C)c(C(C)=O)c5nc(C(C)C)cn5c4n3)ccc2C1` are 184 nM, 7.1 nM, 639 nM and 2.7 nM.
With `CC(=O)c1c(C)c2cnc(Nc3ccc(N4CCNCC4)cn3)nc2n(C2CCCC2)c1=O` [PALBOCICLIB], the IC50 in test [1] stood at 345 nM; in test [3], 301 nM; in test [6], 5420 nM. Further, the Activity in test [5] turned out to be 95.7%.
Regarding `Cc1cn2c(n1)c(C#N)c(C)c1cnc(Nc3ccc(N4CCOCC4)cc3)nc12`, the IC50 in test [2] worked out at 110 nM; in test [4], 123 nM.
Regarding `CC(=O)c1c(C)c2cnc(Nc3ccc4c(n3)CCNC4)nc2n2cc(C(C)C)nc12`, the concentration for half-maximal inhibition (IC50) in test [1] came to 3720 nM; in test [2], 23.1 nM; in test [3] it was 5740 nM; in test [4] it was 9.9 nM.
Regarding `Cc1cn2c(n1)c(C#N)c(C)c1cnc(Nc3ccc(Br)cc3)nc12`, the 50% inhibitory concentration (IC50) in test [2] was 924 nM; in test [4], > 3330 nM.
As to `CC(=O)c1c(C)c2cnc(Nc3ccc(N4CCNCC4)cc3)nc2n2cc(C(=O)N3CCCC3)nc12`, the values for the 50% inhibitory concentration (IC50) in test [1], in test [2] and in test [4] were > 10000 nM, 150 nM and 59 nM, respectively.
For `CC(=O)c1c(C)c2cnc(Nc3ccc(N4CC5(CCOCC5)C4)cn3)nc2n2cc(C(C)C)nc12`, the half-inhibitory concentration (IC50) in test [1] came out at 539 nM; in test [2] it was 25.7 nM; in test [3], 534 nM; in test [4], 9.9 nM.
As for `Cc1cn2c(n1)c(C#N)c(C)c1cnc(N)nc12`, the figures for the IC50 in test [2] and in test [4] were 3090 nM and 592 nM, respectively.
With `CC(=O)c1c(C)c2cnc(Nc3ccc(N4CCNCC4)cc3)nc2n2cc(C3CCCCC3)nc12`, the IC50 in test [1] was 122 nM; in test [2], 22.2 nM; in test [3] it was 121 nM; in test [4], 18.9 nM.
`Cc1cn2c(n1)c(C#N)c(C)c1cnc(Nc3ccc(N4CCNCC4)cc3)nc12`: the IC50 in test [2] is 33.6 nM; in test [4], 26.5 nM.
Consider `CC(=O)c1c(C)c2cnc(Nc3ccc(N4CCNCC4)cn3)nc2n2cc(C(C)C)nc12`, for which the half-maximal inhibitory concentration (IC50) was found to be 291 nM in test [1], 3.7 nM in test [2], 290 nM in test [3] and 3.7 nM in test [4].
As for `CC(=O)c1c(C)c2cnc(Nc3ccc(N4CCNCC4)cc3)nc2n2cc(-c3ccccc3)nc12`, the 50% inhibitory concentration (IC50) came to 412 nM in test [1], 32.8 nM in test [2], 474 nM in test [3] and 13.5 nM in test [4].
For the compound `CC(=O)c1c(C)c2cnc(Nc3ccc(N4CCC5(CCNC5)C4)cn3)nc2n2cc(C(C)C)nc12` (stereo not given), the IC50 came to 719 nM in test [1], 3.8 nM in test [2], 1280 nM in test [3] and 4 nM in test [4].
As for `CC(=O)c1c(C)c2cnc(Nc3ccc(CN4CCNCC4)cn3)nc2n2cc(C(C)C)nc12`, the half-inhibitory concentration (IC50) in test [1] is 165 nM; in test [2], 2.5 nM; in test [3] it was 356 nM; in test [4], 2.2 nM.
For the compound `Cc1c(C#N)c2nc(C(C)C)cn2c2nc(Nc3ccc(N4CCNCC4)cc3)ncc12`, the half-inhibitory concentration (IC50) in test [1] is 585 nM; in test [2] it was 9 nM; in test [4], 10.3 nM.
With `CC(=O)c1c(C)c2cnc(Nc3ccc(N4CCNCC4)cc3)nc2n2cc(C3CCCC3)nc12`, the IC50 stood at 64.8 nM in test [1], 5.9 nM in test [2], 73.4 nM in test [3] and 4.7 nM in test [4].
Turning to `Cc1cn2c(n1)c(C#N)c(C)c1cnc(Nc3ccccc3)nc12`, the IC50 in test [2] was 112 nM; in test [4], 98.9 nM.
As for `Cc1cn2c(n1)c(C#N)c(C)c1cnc(Nc3ccc(Cl)cc3)nc12`, the results for the IC50 in test [2] and in test [4] were 280 nM and 271 nM, respectively.
Regarding `CCN1CCN(Cc2ccc(Nc3ncc(F)c(-c4cc(F)c5nc(C)n(C(C)C)c5c4)n3)nc2)CC1` [ABEMACICLIB], the Activity in test [5] amounted to 95.3%. Besides, in test [6], the IC50 turned out to be 1140 nM.
In the case of `CC(=O)c1c(C)c2cnc(Nc3ccc4c(n3)CCN(CCN(C)C)C4)nc2n2cc(C(C)C)nc12`, the IC50 is 249 nM in test [1], 5.1 nM in test [2], 324 nM in test [3] and 4.2 nM in test [4].

For orientation: IC50 means the concentration that gives 50% inhibition.
